Source: US20150351390A1, “COMPOSITIONS AND METHODS FOR AUXIN-ANALOG CONJUGATION” (PIONEER HI-BRED INTERNATIONAL, INC., priority 2012, published 2015)

How the values were obtained:
[1] = system: Soybean seeds; assay: Phytotoxicity evaluation during soybean germination; assay type: in vivo; details: 1 μM in germination media, 10 days
Method: To evaluate the effect of synthetic auxin conjugates in plants, 2,4-D-Asp, 2,4-D-Glu, dicamba-Asp, and dicamba-Glu were synthesized (Irvine Chemistry Laboratory, Anaheim, Calif.) and tested for auxin effects during soybean germination.
Asp and Glu conjugates of 2,4-D and dicamba were dissolved in a small quantity of Na2CO3 and ethanol, respectively, diluted in ddH2O to obtain 10 mM stock solution, and filter sterilized. Soybean seeds of a Pioneer elite germplasm were sterilized with chlorine gas as following: a) two layers of seeds were placed in a 100×25 mm plastic Petri dish; b) in an exhaust fume hood, seeds were placed into a glass desiccator with a 250 mL beaker containing 100 mL bleach (5% NaOC1) and 3.5 mL 12N HCl was slowly added to the beaker; c) the lid was sealed closed on the desiccator and the seeds sterilized for at least 24 hr.
Sterilized soybean seeds were then imbibed in ddH2O under sterile conditions at 25° C. for 24 hours before germination test. For germination test, 6-8 imbibed seeds were placed on a 100×25 mm deep Petri dish plate containing 50 ml germination media supplemented with or without auxin herbicide conjugates. 1 L seed germination media contains 3.21 g GAMBORG B-5 basal medium (PhytoTech), 20 g sucrose, 5 g tissue culture agar, and is pH adjusted to 5.7. Media was autoclaved at 121° C. for 25 min and cooled to 60° C. before the addition of auxin conjugates. Germination was carried out in a Percival growth chamber at 25° C. under 18 hr light and 6 hr dark cycle at 90 to 150 μE/m2/s and grown for 10 days.

[2] = system: soybean seedlings; assay: Soybean seedling response to spot infiltrated auxins and conjugates; on 1st trifoliate leaf curl: key: 0 = no phenotype; +/− = threshold; on Chlorotic lesion @ app. Pnt: key: 0 = no phenotype; +/− = threshold; assay type: in vivo; design: 1st trifoliate leaf curl / Epinasty score: key: 0 = no phenotype; +/− = threshold; details: for 1st trifoliate leaf curl / Epinasty score / Chlorotic lesion @ app. Pnt: spot infiltration; for Plant response phenotype, soybean: result in words
Method: Conjugate forms of auxinic compounds when applied through spot infiltration, a needleless method to introduce exogenous agents into plant cells. Initially, various concentrations of analytical grade (98%+pure) IAA, 2,4-D, and dicamba were prepared as solutions that were applied directly to uni-foliate leaves of 9 day old soybean seedlings by spot infiltration in order to determine the range of auxinic response and severity.
Spot infiltration comprises applying a compound to be tested in composition that is applied to the surface of a plant, for example, to a leaf or other plant structure. For example, a method for testing a plant response to one or more compounds using spot infiltration comprises a) providing a composition comprising one or more compounds to be tested in a container having at least an opening for the compound enter and/or exit, and one or more elements for moving the composition into or out of the container; b) contacting at least one opening of the container with the surface of a plant and moving the composition comprising one or more compounds to at least the surface of the plant. A container and elements for moving the composition may comprise a syringe body and plunger. Moving the composition to the plant surface comprises contacting the surface with pressure sufficient for the composition to enter the cells of the plant. In an aspect, spot filtration testing comprises measuring an effect of the composition on the contacted plant and comparing that measure or effect to a plant that is not contacted with the composition.
Plant response phenotypes were documented at one day post-spot infiltration and subsequently every other day, up to nine days post treatment. […] In the studies described herein below, 5 replicate treatments for each conjugate form were conducted, along with appropriate negative controls.
(§1) Examples 9 and 10 utilized a spot infiltration method for the delivery of an herbicide directly to leaves of a plant. The method generally allows for the directed delivery of a variety of agents to a localized area of a plant, e.g. localized region of leaves, for screening or assessment purposes, e.g. to quickly assess the response of a plant to the agent. As used in the foregoing examples, the spot infiltration method was used to introduce specific herbicides or specific conjugates of the herbicides to seedling plant leaves. Following introduction of the herbicide or the appropriate conjugate, plants were observed daily for nine days for characteristics of epinasty, trifoliate leaf curly, chlorosis, and new growth recovery.
(§2) Briefly, a solution of the desired agent is prepared of the desired agent, e.g. as described above in Example 10, solutions (5% EtOH) of 1, 2.5 and 5 mM IAA. The solution is then drawn into a 1 mL BD™ slip-tip syringe, bulk, non-sterile syringe (e.g. Becton, Dickinson and Company, Product No. 301025) with 100 μL markings. The desired volume is then applied to the leaf, e.g. as described in Examples 9 and 10, with the tip of the syring against the leaf and positive pressure applied to the syringe plunger. Sufficient pressure is applied in order to infuse the area beneath the syringe opening, but not so much pressure as to cause a visible-to-the-eye puncture or hole to form in the leaf. Some run-off of solution around the syringe opening is expected. In the foregoing examples, two spots were applied to each of two leaves per seedling for soybean plants. […] In soybean, both spots per leaf were at the distal portion of the leaf about 1-2 cm apart. When the method was applied to Arabidopsis, two developmentally intermediate aged leaves were chosen per plant, and one spot infiltration was carried out per leaf.

[3] = system: Arabidopsis ecotype Col-0 plant; assay: Arabidopsis response to spot infiltrated auxins and conjugates; assay type: in vivo, Arabidopsis thaliana; details: result in words
Method: The effect of auxin conjugates was assessed using Arabidoposis (Arabidopsis thialiana) ecotype Col-0 plant. Prior to studies utilizing the auxin conjugates, levels of analytical grade (98%+pure) IAA, 2,4-D and dicamba in solution were applied at various concentrations directly to developmentally similar leaves of 20-23 day old Arabidopsis seedlings by needleless syringe spot infiltration methodology, in order to determine range of auxinic response and severity. Phenotypes were documented relative to control at 1 day post-spot infiltration and subsequently every other day, up to nine days post treatment. Three concentrations were chosen based on reproducibility, and conjugated forms were then studied with 4 or more replicate treatments for each, along with appropriate negative controls (H2O and 10% EtOH).
as §1, §2
Generally, for Arabidopsis, the two leaves were chosen from opposite sides of rosette. In general, the spot infiltration method is carried out on younger plants in order to minimize experimental footprint and to maintain developmental uniformity. However, the method is not limited to use on young plants and can be easily applied to older plants as determined by the goals of a particular experiment.

SMILES | Soybean seed germination and growth [1] | 1st trifoliate leaf curl ([2]; 100 μM) | 1st trifoliate leaf curl ([2]; 250 μM) | 1st trifoliate leaf curl ([2]; 500 μM) | Plant response phenotype, soybean ([2]; 100, 250 & 500 μM) | Epinasty score ([2]; 100 μM) | Epinasty score ([2]; 250 μM) | Chlorotic lesion @ app. Pnt ([2]; 50 μM) | Chlorotic lesion @ app. Pnt ([2]; 100 μM) | Chlorotic lesion @ app. Pnt ([2]; 250 μM) | Plant response phenotype, soybean ([2]; 50, 100 and 250 μM) | Phenotype, Arabidopsis ([3]; 50, 100 and 250 μM) | 1st trifoliate leaf curl ([2]; 50 μM) | Epinasty score ([2]; 50 μM) | further results
O=C(O)C[C@H](NC(=O)COc1ccc(Cl)cc1Cl)C(=O)O [2,4-D-Asp] | seed germination and growth were normal | 0 | 0 | 0 | auxinic response nearly equivalent to that of 2,4-D |  |  |  |  |  |  |  |  |  | 
O=C(O)CC[C@H](NC(=O)COc1ccc(Cl)cc1Cl)C(=O)O [2,4-D-Glu] | seed germination and growth were normal | 0 | 0 | 0 | distinctly lower level of severity | +/− | +/− |  |  |  |  |  |  |  | Plant response phenotype, soybean ([2]; 500 μM): modest epinasty; Plant response phenotype, soybean ([2]; lower concentration than 500 μM): no discernible auxinic responses
O=C(O)CC[C@H](NC(=O)Cc1c[nH]c2ccccc12)C(=O)O [IAA-Glu] |  |  |  |  |  |  |  |  |  |  |  |  |  |  | 1st trifoliate leaf curl ([2]; 1.0 mM): 0; Chlorotic lesion @ app. Pnt ([2]; 1.0 mM): 0; Epinasty score ([2]; 1.0 mM): 0; 1st trifoliate leaf curl ([2]; 2.5 mM): 0; Chlorotic lesion @ app. Pnt ([2]; 2.5 mM): 0; Epinasty score ([2]; 2.5 mM): 0; 1st trifoliate leaf curl ([2]; 5.0 mM): 0; Chlorotic lesion @ app. Pnt ([2]; 5.0 mM): 0; Epinasty score ([2]; 5.0 mM): 0; Plant response phenotype, soybean ([2]; 1, 2.5 and 5 mM): No discernable phenotype; Phenotype, Arabidopsis ([3]; 1, 2.5 and 5 mM, all test levels): No discernable phenotype
COc1c(Cl)ccc(Cl)c1C(=O)O [dicamba, 3,6-dichloro-2-methoxybenzoic acid free acid] | seed germination was arrested |  |  |  |  |  |  | 0 | 0 | 0 | epinasty at day 1 and leaf curling of 1st tri-foliate | petiole epinasty and leaf curling at day one |  |  | 
COc1c(Cl)ccc(Cl)c1C(=O)NC(CC(=O)O)C(=O)O (stereo not shown) [dicamba-Asp] | seed germination and growth were normal | 0 | 0 |  |  | 0 | 0 | 0 | 0 | 0 | phenotypes similar to that of negative control | No obvious phenotype | 0 | 0 | 
COc1c(Cl)ccc(Cl)c1C(=O)NC(CCC(=O)O)C(=O)O (stereo not shown) [dicamba-Glu] | seed germination and growth were normal | 0 | 0 |  |  | 0 | 0 | 0 | 0 | 0 | phenotypes similar to that of negative control |  | 0 | 0 | Phenotype, Arabidopsis ([3]; 100 and 250 μM, compared to dicamba alone): modest epinasty
